Experiment [1] concerns C4-HI. As to conditions: concentrations lower than growth inhibitory ones; cited from earlier work.
For experiment [2], the system named is C4-HI or C4-HIR epithelial cells with carcinoma-associated fibroblasts. Kind of experiment: (3H)-thymidine uptake, co-cultures with carcinoma-associated fibroblasts. It is filed as cell-based, mouse. As to conditions: own or other tumor's fibroblasts. As for the experimental part:
Trypsinized cells were resuspended and equal amounts of epithelial cells and carcinoma-associated fibroblasts were seeded with 10% FCS that was replaced after attachment by 1% steroid-stripped FCS. […] The same amount of epithelial cells or carcinoma-associated fibroblasts or double the amount of purified cells was used for comparison.
(3H)-thymidine-uptake was used as an indirect method to evaluate cell proliferation. In brief, cells were seeded into 96-well microplates. After attachment (24 h), the cells were incubated for 24 h with 1% steroid-stripped FCS and then for 48 h with the experimental solutions to be tested in 1% chFCS. Fifty percent of the medium was replaced with fresh medium every 24 h. The cells were incubated with 0.4 μCi of 3H-thymidine (specific activity: 20 Ci/mmol) for 24 h, trypsinized, and harvested in a cell harvester. In experiments in which 5azadC was used, the experiments were carried out using proliferating cells (presence of 10% FCS) to guarantee the effect of the demethylating agent. Three different experiments were made using octuplicates, and the means and standard deviations of one representative experiment of the other three are shown. The results are expressed as the proliferation index (cpm […] experimental group/cpm control; mean±SEM).

The target in experiment [3] is T1, glucocorticoid receptor (Homo sapiens, UniProt P04150).
T1 sequence (P04150 1-777): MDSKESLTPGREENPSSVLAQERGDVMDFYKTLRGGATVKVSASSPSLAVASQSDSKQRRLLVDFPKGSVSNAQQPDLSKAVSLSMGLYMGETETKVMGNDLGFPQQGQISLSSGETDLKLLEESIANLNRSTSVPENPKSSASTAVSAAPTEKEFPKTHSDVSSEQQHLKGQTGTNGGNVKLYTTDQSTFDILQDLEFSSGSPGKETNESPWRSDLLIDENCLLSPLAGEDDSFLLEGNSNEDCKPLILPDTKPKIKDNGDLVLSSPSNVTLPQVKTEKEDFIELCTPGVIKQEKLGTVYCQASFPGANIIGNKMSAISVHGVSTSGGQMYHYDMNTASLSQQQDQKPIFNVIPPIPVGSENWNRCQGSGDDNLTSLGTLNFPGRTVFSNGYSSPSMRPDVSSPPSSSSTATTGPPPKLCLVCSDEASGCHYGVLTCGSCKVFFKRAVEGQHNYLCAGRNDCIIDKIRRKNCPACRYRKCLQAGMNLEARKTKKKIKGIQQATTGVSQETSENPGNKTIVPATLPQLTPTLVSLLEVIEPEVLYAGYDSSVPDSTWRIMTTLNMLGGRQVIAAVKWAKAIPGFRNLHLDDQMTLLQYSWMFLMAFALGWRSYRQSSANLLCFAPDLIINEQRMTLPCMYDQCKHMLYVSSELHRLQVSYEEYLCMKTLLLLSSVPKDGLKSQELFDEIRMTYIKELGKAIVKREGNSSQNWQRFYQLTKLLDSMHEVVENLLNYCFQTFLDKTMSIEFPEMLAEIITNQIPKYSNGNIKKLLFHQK
Conditions: cited from earlier work.

For experiment [4], the system named is T47D cells. Conditions: cited from earlier work.
Experiment [5] has as its system epithelial cells from breast cancer samples. Kind of experiment: Primary cultures from breast cancer samples: cell number or Ki67. In kind it is cell-based, human. The source says: The samples were obtained at surgery from patients diagnosed with breast cancer at the […]. de Martinez Hospital from General Pacheco and at the […] Hospital of Buenos Aires after signing the informed consent (n=70; median age 55 year). Protocols were approved by the Institutional Ethical Review Board. Whenever possible, one piece of the sample was kept in dry ice immediately after surgery and another piece was kept in culture medium and transported to IBYME. Tumor samples were processed by mechanical and enzymatic degradation and epithelial cells were purified by differential sedimentation techniques (7). The epithelial cells were cultured with DMEM/F12 medium plus 10% fetal calf serum (FCS). Once the cultures were overcrowded, they were subcultured and equal numbers of cells were seeded in 24 well plates. […] OH-Tamoxifen was also used as a control. After one week of treatment, the cells were trypsinized and the total number of cells in each well was counted or alternatively, they were fixed to evaluate the Ki67 (proliferation marker) expression by IHC. In several cases in which there were carcinoma associated fibroblasts intermingled with the epithelial cells, a double staining of Ki67 and cytokeratin (CK) was performed to consider the proliferating cells among the total number of epithelial cells (CK+). An inhibitory index was calculated for each tumor.

The test system of experiment [6] is 59-2-HI tumor. Kind of experiment: MPA breast cancer model, responsive tumor in vivo. Conditions: mouse.
For experiment [7], the system named is C4-HI. Kind of experiment: MPA breast cancer model, responsive tumor in vivo. Further details: species or system mouse.
Experiment [8] concerns breast cancer samples. Kind of experiment: Cultured breast cancer slices (chopper), Ki67. In kind it is cell-based, human. Conditions: 10 nM, 48 hs. The source says: Sections of formalin-fixed, paraffin-embedded tissue were stained with PR (C-19), or Ki67 (Dako, […]) antibodies using the avidin-biotin-peroxidase complex technique (Vectastain Elite ABC kit; Vector), as described previously (6). Positive cells were counted in 10 high-power fields (HPFs) of each section, using 1000× magnification, and expressed as the mean±SEM of the ratio between the number of positive events and the total cell number. Following the previous experiments shown in PART 1, breast cancer samples obtained after surgery from the Hospital General Pacheco (IRB approved by Hospital and IBYME) were used. Whenever possible, part of the sample is immediately frozen to be used in Western blot studies, other part is fixed to be used in IHC studies and a similar part is kept in medium culture. Slices obtained using a chopper were cultured for 48 hs with DMEM/F12 without phenol red and 10% fetal cal serum with or without MFP 10 nM. Tumor slices were then fixed, paraffin embedded and processed for immunohistochemistry. Cell proliferation was evaluated using Ki67 as described above. The number of slices depends on the sample size.

We go through one molecule from US10039806B2, “Methods and compositions for treating antiprogestin-resistant cancers” (Fundación Sales, priority 2011, dated 2018).

For `CC#C[C@]1(O)CC[C@H]2[C@@H]3CCC4=CC(=O)CCC4=C3[C@@H](c3ccc(N(C)C)cc3)C[C@@]21C` [RU-486, mifepristone], the “tumor growth at low doses” value in experiment [1] is “stimulated C4-HI growth”. The co-culture cell proliferation result in experiment [2] is “inhibited”. Also, the antiglucocorticoid activity entry in experiment [3] is given as “antiglucocorticoid effects, albeit at concentrations higher than those needed for its antiprogestin activity”. The “effects on T47D cells” value in experiment [4] (5% FCS) was “inhibitory effects”. Besides, the “proliferation of T47D and MCF-7 cells” value in experiment [4] (MIF at micromolar concentrations) is “stimulate the proliferation”. For the same molecule, the E2-induced cell proliferation entry in experiment [4] (clone 11, ER- and PR-positive) was “specifically inhibit E2-induced cell proliferation”. Also, in experiment [5] (10^-8 M, one week, 3 out of 8 cases, p<0.05), the “number of cells as compared to the controls” value was “significant decrease in the number of cells”. For the same molecule, in experiment [5] (ER+ PR+ invasive ductal carcinoma, high PR-A/PR-B, 10^-8 M), the “cell proliferation, case #137” value is reported as “decrease in cell proliferation”. The “effect on cell proliferation” value in experiment [5] (samples with high levels of PR-A expression) is given as “inhibitory effect”. In addition, the in vitro responsiveness entry in experiment [5] (three PR negative tumors) is “no in vitro responsiveness”. For the same molecule, in experiment [6], the “tumor regression (histology)” value is “the tumor regresses”. Also, the “differentiation (histology)” value in experiment [7] (mouse, in vivo) is listed as “increase in differentiation”. Further, in experiment [7] (tumors with higher PR-A than PR-B, FIG. 15), the tumor growth result is listed as “completely inhibited”. Moreover, the Ki67 result in experiment [8] (1 PR negative case) was “no inhibition was observed”; in experiment [8] (1 case PRA/PRB lower than 1), “significant inhibition”; in experiment [8] (2 cases PRA/PRB lower than 1) it was “no inhibition was observed”; in experiment [8] (3 cases PRA/PRB high), “significant inhibition of Ki67”. The “Ki67, stimulation” value in experiment [8] (PRA/PRB lower than 1, FIG. 25) is reported as “significant stimulation”.
